Several values for one entry are separate records, joined by “and”; a condition that tells them apart may be missing. Identical values can stand only once.
Columns and labels:
[1] = biological target: T1, KATP channel in A10 rat aortic smooth muscle cells (Rattus norvegicus, UniProt Q63563); experiment: A10 membrane potential assay (DiBAC4(3) fluorescence), KATP channel opening; assay type: cell-based; settings: for block of the hyperpolarizing effect by glyburide: 10 μM glyburide; for block of the hyperpolarizing effect by glyburide / EC50: A10 cells; for EC50: hyperpolarization of membrane potential; for potency relative to N-cyano-N'-(1,1-dimethylpropyl)-N''-3-pyridinylguanidine: A10 membrane potential assay
T1 construct: resting membrane potential of A10 rat aortic smooth muscle cells; host or cells: A10 rat aortic smooth muscle cells
T1 sequence (Q63563 1-1545 isoform Q63563-2): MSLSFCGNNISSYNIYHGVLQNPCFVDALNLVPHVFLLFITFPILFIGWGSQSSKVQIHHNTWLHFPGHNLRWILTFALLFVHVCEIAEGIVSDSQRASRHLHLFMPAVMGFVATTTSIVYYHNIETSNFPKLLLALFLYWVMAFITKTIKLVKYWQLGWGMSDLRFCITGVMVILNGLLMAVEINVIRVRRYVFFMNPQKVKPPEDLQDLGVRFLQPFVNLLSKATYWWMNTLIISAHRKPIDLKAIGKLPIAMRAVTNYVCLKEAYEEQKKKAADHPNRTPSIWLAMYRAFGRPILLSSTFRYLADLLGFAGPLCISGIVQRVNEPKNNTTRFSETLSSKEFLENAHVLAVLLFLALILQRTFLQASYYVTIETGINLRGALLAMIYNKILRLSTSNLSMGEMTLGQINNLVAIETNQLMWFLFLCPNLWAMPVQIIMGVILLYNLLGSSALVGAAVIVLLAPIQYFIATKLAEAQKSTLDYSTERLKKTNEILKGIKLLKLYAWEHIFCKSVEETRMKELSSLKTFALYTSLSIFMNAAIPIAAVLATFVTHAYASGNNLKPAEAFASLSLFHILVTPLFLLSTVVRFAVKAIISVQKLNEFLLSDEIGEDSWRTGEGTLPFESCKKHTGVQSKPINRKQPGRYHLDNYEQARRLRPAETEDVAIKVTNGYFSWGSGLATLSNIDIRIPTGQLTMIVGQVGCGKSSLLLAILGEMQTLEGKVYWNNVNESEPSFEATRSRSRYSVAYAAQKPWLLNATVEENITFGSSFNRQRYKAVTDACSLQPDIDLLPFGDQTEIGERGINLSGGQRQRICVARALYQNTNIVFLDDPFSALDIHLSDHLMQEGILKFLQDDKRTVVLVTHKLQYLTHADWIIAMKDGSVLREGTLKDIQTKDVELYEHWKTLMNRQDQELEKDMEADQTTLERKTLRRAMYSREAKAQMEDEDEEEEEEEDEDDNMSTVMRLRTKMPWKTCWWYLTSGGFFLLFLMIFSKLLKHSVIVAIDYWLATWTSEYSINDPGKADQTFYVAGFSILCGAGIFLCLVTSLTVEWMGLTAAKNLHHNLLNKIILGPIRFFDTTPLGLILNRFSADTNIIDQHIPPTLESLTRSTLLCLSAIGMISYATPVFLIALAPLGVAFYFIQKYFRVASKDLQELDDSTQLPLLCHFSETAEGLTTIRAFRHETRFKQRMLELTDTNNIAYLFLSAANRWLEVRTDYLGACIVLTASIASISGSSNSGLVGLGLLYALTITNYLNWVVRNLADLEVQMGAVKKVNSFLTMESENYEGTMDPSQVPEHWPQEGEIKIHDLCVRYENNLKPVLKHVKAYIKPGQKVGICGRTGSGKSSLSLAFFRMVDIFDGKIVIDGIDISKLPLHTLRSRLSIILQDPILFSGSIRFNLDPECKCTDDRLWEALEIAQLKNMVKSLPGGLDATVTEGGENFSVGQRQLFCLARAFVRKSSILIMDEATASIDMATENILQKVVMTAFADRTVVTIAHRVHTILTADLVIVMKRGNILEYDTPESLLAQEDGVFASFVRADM
T1 sequence (Q63664 whole entry partner): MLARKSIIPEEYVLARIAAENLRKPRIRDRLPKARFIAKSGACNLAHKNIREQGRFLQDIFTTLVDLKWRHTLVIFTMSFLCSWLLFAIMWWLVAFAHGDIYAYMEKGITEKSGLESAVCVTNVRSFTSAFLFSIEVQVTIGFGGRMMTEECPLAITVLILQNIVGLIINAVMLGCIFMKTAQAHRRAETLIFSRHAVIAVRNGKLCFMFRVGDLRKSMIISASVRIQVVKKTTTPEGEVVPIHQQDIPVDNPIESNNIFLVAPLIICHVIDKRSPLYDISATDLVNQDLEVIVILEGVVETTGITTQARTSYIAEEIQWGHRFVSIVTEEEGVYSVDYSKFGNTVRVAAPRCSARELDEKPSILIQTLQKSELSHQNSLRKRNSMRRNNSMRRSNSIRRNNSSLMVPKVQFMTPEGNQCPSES
Description: (§1) Compounds that modulate KATP channel activity were examined by quantitating the effect of these compounds on the resting membrane potential of A10 rat aortic smooth muscle cells (American Type Culture Collection, number CRL-1476) using a fluorescent, potentialsensitive dye and an instrument to measure changes in cellular fluorescence. The dye of choice is bis(1,3-dibutylbarbituric acid)trimethine oxonol) DiBAC4 (3). Other voltage sensitive dyes could also be used. To optically measure changes in membrane potential, cells were subcultured onto coverglass chambers and grown to confluence. Immediately prior to analysis, cells were washed several times with Earle's balanced salt solution that was buffered to pH 7.4 with 20 mM Hepes (EBSS-H) and then placed in the buffer containing 5 μM DiBAC4 (3). Fluorescent imaging of membrane potential was carried out after the cells were equilibrated with 5 μM DiBAC4 (3) for at least 15 min at 37° C. and then placed in a 35° C. temperature-regulated mini-incubator that was mounted on the stage of laser based imaging cytometer (ACAS 570, Meridian Instruments). The ACAS 570 was configured to excite the cells at 488 nm using an argon ion laser. The fluorescent emission was monitored at 525 nm. To determine the effect of azidophenylcyanoguanidines on membrane potential, the ACAS 570 was configured to collect data once every 60 seconds for at least 25 minutes using the Kinetic program within the ACAS software. In all cases, 7 min. of baseline data were collected before the addition of the compound of interest. Changes in membrane potential were computed using a logistical model developed at Upjohn Laboratories. Control experiments established that solvents such as dimethylsulfoxide and ethanol had no effect at concentrations up to 0.8%.
In FIG. 1 the Y axis represents the change in membrane potential elicited by N-cyano-N'-(1,1-dimethylpropyl)-N''-3-pyridinylguanidine. A positive change represents a hyperpolarization of the membrane potential caused by an opening of a KATP channel. The X axis represents increasing concentrations of N-cyano-N'-(1,1-dimethylpropyl)-N''-3-pyridinylguanidine. […] The EC50 for N-cyano-N'-(1,1-dimethylpropyl)-N''-3-pyridinylguanidine in the A10 membrane potential assay is 30 nM. […] In FIG. 2 the Y axis represents change in membrane potential elicited by Example 1. A positive change represents a hyperpolarization of the membrane potential caused by an opening of a KATP channel. The X axis represents increasing concentrations of Example 1. Example 1 is structurally related to N-cyano-N'-(1,1-dimethylpropyl)-N''-3-pyridinylguanidine and has an EC50 of approximately 30 nM in the A10 assay. […] In FIG. 3 the Y axis represents the change in membrane potential elicited by Example 2. A positive change represents a hyperpolarization of the membrane potential caused by an opening of a KATP channel. The X axis represents increasing concentrations of Example 2. Example 2 is structurally related to N-cyano-N'-(1,1-dimethylpropyl)-N''-3-pyridinylguanidine and has an EC50 of approximately 30 nM in the A10 assay.
In FIG. 4A and 4B the Y axis represents a change in membrane potential. In these experiments, a change in the negative direction represents a hyperpolarization of the membrane potential caused by an opening of a KATP channel. In FIG. 4A and 4B the X axis represents time in minutes. Additional experiments indicate that 0.3 and 1.0 μM Example 3 also have no effect on the membrane potential of A10 cells (data not shown). […] Thus, within the azidophenylcyanoguanidine chemical series there are compounds that can be used to identify the cellular components required to open and close KATP close channels.

[2] = tested on: KATP channel in A10 cells; experiment: Photoinactivation of KATP channels in A10 cells (UV pretreatment, then opener challenge); assay type: cell-based, rat; settings: for responsiveness to N-cyano-N'-(1,1-dimethylpropyl)-N''-3-pyridinylguanidine challenge after pretreatment and UV light: UV 254 nm, 1 min, challenge 1 μM, FIG. 5; for photoinactivation of the A10 KATP channel: compound and UV light
Description: as §1
Photoinactivation of KATP channels in A10 cells was carried out on cells grown on coverglass chambers. A10 cells were grown to confluence and washed 3 times with EBSS-H. The A10 cells were then equilibrated for 15 min at 37° C. with 100 nM to 30 μM of the azidophenyl-cyanoguanidines. The A10 cells were exposed to 600 μwatts/cm^2 of 254 nm light for 1 min to photoactivate these azidophenyl-cyanoguanidines. After photolysis, the A10 cells were extensively washed with EBSS-H and finally placed in EBSS-H containing 5 μM DiBAC4 (3). The pretreated cells were then challenged with 1 μM N-cyano-N'-(1,1-dimethylpropyl)-N.increment.-3-pyridinylguanidine and changes in membrane potential were measured as described in Section I, above, ASSAY OF KATP CHANNEL MODULATORS. If the KATP channels in A10 cells were covalently photoinactivated by the azidophenyl-cyanoguanidines, then the cells would be unresponsive to the subsequent challenge of KATP openers such as N-cyano-N'-(1,1-dimethylpropyl)-N''-3-pyridinylguanidine. […]

[3] = tested on: cyanoguanidine binding proteins; experiment: Photolabeling of cyanoguanidine binding proteins in A10 cells (SDS gel, autoradiography); parameters: species or system rat; settings: for apparent molecular weight of the most prominent radiolabeled protein / molecular weight of radiolabeled protein / number of radiolabeled proteins: A10 membrane extracts, UV light
Description: (§2) To biochemically identify the proteins that specifically bind the azidophenylcyanguanidines, Example 1a, Example 2a and Example 3a were prepared. A10 cells were grown to confluence in standard culture plates and then washed extensively with EBSS-H. After the final wash, the cells were placed in EBSS-H containing one of the radiolabeled forms of the azidophenylcyanguanidine to be tested. The A10 cells were equilibrated with the radiolabeled compound for 15 minutes at 37° C. The A10 cells were placed on ice and exposed for 1 minute to 600 μwatts/cm^2 of 254 nm UV light. After photolysis, the A10 cells were washed extensively with phosphate buffered saline. Membranes from the A10 cells were solubilized in cocktail of 0.2% Triton X100 detergent and protease inhibitors. The membranes were precipitated with 4 volumes of ice cold acetone for 30 minutes. The precipitate membrane proteins were collected by centrifugation at 20,000 rpm for 30 rain at 4° C. in a Beckman SW-28 rotor. After centrifugation the supernate was discarded and the pellet was dissolved 2% sodium dodecyl sulfate (SDS) as described by O'Farrell (J. Biol. Chem. 250:4007-4021, 1975). The radiolabeled proteins were resolved on an SDS polyacrylamide gel and identified by autoradiography after the gel was stained and dried.

[4] = tested on: calcium-activated potassium channel; experiment: Responsiveness of photoinactivated A10 cells to agents that open the calcium-activated potassium channel; assay type: cell-based, rat; settings: maximum concentration and UV light
47 kilodalton protein = experiment: Competition of photolabeling of the 47 kilodalton protein by nonradiolabeled compound; assay type: binding, rat
Description: as §2, with “dried. […]” for “dried.”

56 kilodalton protein = experiment: Competition of photolabeling of the 56 kilodalton protein by nonradiolabeled compound; assay type: binding, rat; settings: nonradiolabeled Example 2, 1 nM to 30 uM
Description: as §2, with “dried. […]” for “dried.”

[5] = biological target: T1, KATP channel in A10 rat aortic smooth muscle cells; experiment: Reversal/block of N-cyano-N'-(1,1-dimethylpropyl)-N''-3-pyridinylguanidine-dependent KATP channel opening in A10 cells (membrane potential); assay type: cell-based
Description: as §1
In FIG. 4A and 4B the Y axis represents a change in membrane potential. In these experiments, a change in the negative direction represents a hyperpolarization of the membrane potential caused by an opening of a KATP channel. In FIG. 4A and 4B the X axis represents time in minutes. […]

37 kilodalton protein = experiment: Competition of photolabeling of the 37 kilodalton protein by nonradiolabeled compound; assay type: binding, rat; settings: nonradiolabeled Example 3, 1 nM to 30 uM
Description: as §2
(§3) There was also a 27 kilodalton protein that was radiolabeled by Example 3a and UV light.

27 kilodalton protein = experiment: Competition of photolabeling of the 27 kilodalton protein by nonradiolabeled compound; assay type: binding, rat; settings: nonradiolabeled Example 3, 1 nM to 30 uM
Description: as §2, §3

For CCC(C)(C)NC(=Nc1cccnc1)NC#N [N-cyano-N'-(1,1-dimethylpropyl)-N''-3-pyridinylguanidine, reference compound], the “opening of the A10 KATP channel with hyperpolarization” value ([1]; 1 μM, FIG. 4B) was “opens the A10 KATP channel”, the “block of the hyperpolarizing effect by glyburide” value (shortened to “block … by glyburide”) ([1]; data not shown) was “blocked” and the EC50 [1] was 30 nM. For the same compound, the “responsiveness to N-cyano-N'-(1,1-dimethylpropyl)-N''-3-pyridinylguanidine challenge after pretreatment and UV light” value [2] was “remain nearly completely responsive”.
In the case of N#CN=C(Nc1cc([125I])cc(N=[N+]=[N-])c1)NC1(c2cccc(F)c2)CCC1 [Example 3a, N-(3-azido-5-iodo-125I-phenyl)-N'-cyano-N''-[1-(3-fluorophenyl)cyclobutyl]guanidine], the “apparent molecular weight of the most prominent radiolabeled protein” value [3] is reported as 37 kilodaltons, the “molecular weight of radiolabeled protein” value [3] is reported as 27 kilodalton and the “number of radiolabeled proteins” value [3] is reported as “several radiolabeled proteins”.
CCC(C)(C)N=C(NC#N)Nc1cc(I)cc(N=[N+]=[N-])c1 [Example 2, N-(3-azido-5-iodophenyl)-N'-cyano-N''-(1,1-dimethylpropyl)guanidine] was tested, and the “block … by glyburide” value ([1]; data not shown) was “blocked”, the EC50 [1] was ~30 nM and the “potency relative to N-cyano-N'-(1,1-dimethylpropyl)-N''-3-pyridinylguanidine” value [1] was “as potent as”. The “photoinactivation of the A10 KATP channel” value [2] was “specifically photoinactivated the A10 KATP channel”, the “responsiveness to agents that open the calcium-activated potassium channel after pretreatment” value [4] was “remained responsive” and the “inhibition of radiolabeling of the 47 kilodalton protein by Example 2a” value (47 kilodalton protein; nonradiolabeled Example 2, 1 nM to 30 uM) was “specifically inhibited”. The “inhibition of radiolabeling of the 56 kilodalton protein by Example 2a” value (56 kilodalton protein) was “specifically inhibited”.
In the case of N#CNC(=NC1(c2cccc(F)c2)CCC1)Nc1cc(I)cc(N=[N+]=[N-])c1 [Example 3, N-(3-azido-5-iodophenyl)-N'-cyano-N"-(1-(3-fluorophenyl)cyclobutyl)guanidine], the “effect on the membrane potential of A10 cells” value (from here on “effect … of A10 cells”) ([1]; 0.3 μM, data not shown) is reported as “no effect”, the “effect … of A10 cells” value ([1]; 1.0 μM, data not shown) is reported as “no effect” and the “effect … of A10 cells” value ([1]; 10 μM, FIG. 4A) is reported as “no effect”. For the same compound, the “reversal of the effect of N-cyano-N'-(1,1-dimethylpropyl)-N''-3-pyridinylguanidine” value ([5]; 10 μM, in continuing presence of 1 μM opener, FIG. 4B) was “reverses the effect”, the “block of opener-dependent opening of KATP channels” value ([5]; additional experiments, concentration dependence) was “in a concentration dependent manner” and the “mode of action on the KATP channel in A10 cells” value ([5]; conclusion from the data) was “blocker of the KATP channel”. For the same compound, the “inhibition of radiolabeling of the 37 kilodalton protein by Example 3a” value (37 kilodalton protein) was “specifically inhibited” and the “inhibition of radiolabeling of the 27 kilodalton protein by Example 3a” value (27 kilodalton protein) was “specifically inhibited”.
For CCC(C)(C)N=C(NC#N)Nc1cc(Cl)cc(N=[N+]=[N-])c1 [Example 1, N-(3-azido-5-chlorophenyl)-N'-cyano-N"-(1,1-dimethylpropyl)guanidine], the “block … by glyburide” value ([1]; data not shown) was “blocked”, the EC50 [1] was ~30 nM and the “potency relative to N-cyano-N'-(1,1-dimethylpropyl)-N''-3-pyridinylguanidine” value [1] was “as potent as”. The “responsiveness to N-cyano-N'-(1,1-dimethylpropyl)-N''-3-pyridinylguanidine challenge after pretreatment and UV light” value [2] was “concentration dependent loss”, the “photoinactivation of the A10 KATP channel” value [2] was “specifically photoinactivated the A10 KATP channel” and the “responsiveness to agents that open the calcium-activated potassium channel after pretreatment” value [4] was “remained responsive”. The “inhibition of radiolabeling of the 47 kilodalton protein by Example 1a” value (47 kilodalton protein; nonradiolabeled Example 1, 30 nM to 30 uM) was “specifically inhibited”.
With CCC(C)(C)NC(=NC#N)Nc1cc([125I])cc(N=[N+]=[N-])c1 [Example 2a, N-(3-azido-5-iodo-^125 I-phenyl)-N'-cyano-N''-(1,1-dimethylpropyl) guanidine] the “molecular weight of radiolabeled protein” value [3] was 47 kilodalton and 56 kilodalton.
In the case of [3H]C([3H])([3H])C([3H])([3H])C(C)(C)NC(=NC#N)Nc1cc(Cl)cc(N=[N+]=[N-])c1 [Example 1a, N-(3-azido-5-chlorophenyl)-N'-cyano-N''-(1,1-dimethyl-2,2,3,3,3-T5-propyl)guanidine], the “apparent molecular weight of the most prominent radiolabeled protein” value [3] is reported as 47 kilodaltons, the “number of radiolabeled proteins” value [3] is reported as “several radiolabeled proteins” and the “labeling in the absence of UV light” value ([3]; no UV light, control experiments) is reported as “no proteins were labeled”.
